Laboratory results: US11040035B2, “3-oxo-2,6-diphenyl-2,3-dihydropyridazine-4-carboxamides” (BAYER PHARMA AKTIENGESELLSCHAFT, priority 2016, dated 2021)

Tests used:
AHR [1] = biological target: T1, AHR (Homo sapiens, UniProt P35869); experiment: In vitro assay 2: agonism in human cell line (transactivation assay); conditions: Assay 2: AHR-luc Hum Agonism IC50 [M], no kynurenic acid, 20 hours, firefly luciferase
T1 sequence (P35869 11-848): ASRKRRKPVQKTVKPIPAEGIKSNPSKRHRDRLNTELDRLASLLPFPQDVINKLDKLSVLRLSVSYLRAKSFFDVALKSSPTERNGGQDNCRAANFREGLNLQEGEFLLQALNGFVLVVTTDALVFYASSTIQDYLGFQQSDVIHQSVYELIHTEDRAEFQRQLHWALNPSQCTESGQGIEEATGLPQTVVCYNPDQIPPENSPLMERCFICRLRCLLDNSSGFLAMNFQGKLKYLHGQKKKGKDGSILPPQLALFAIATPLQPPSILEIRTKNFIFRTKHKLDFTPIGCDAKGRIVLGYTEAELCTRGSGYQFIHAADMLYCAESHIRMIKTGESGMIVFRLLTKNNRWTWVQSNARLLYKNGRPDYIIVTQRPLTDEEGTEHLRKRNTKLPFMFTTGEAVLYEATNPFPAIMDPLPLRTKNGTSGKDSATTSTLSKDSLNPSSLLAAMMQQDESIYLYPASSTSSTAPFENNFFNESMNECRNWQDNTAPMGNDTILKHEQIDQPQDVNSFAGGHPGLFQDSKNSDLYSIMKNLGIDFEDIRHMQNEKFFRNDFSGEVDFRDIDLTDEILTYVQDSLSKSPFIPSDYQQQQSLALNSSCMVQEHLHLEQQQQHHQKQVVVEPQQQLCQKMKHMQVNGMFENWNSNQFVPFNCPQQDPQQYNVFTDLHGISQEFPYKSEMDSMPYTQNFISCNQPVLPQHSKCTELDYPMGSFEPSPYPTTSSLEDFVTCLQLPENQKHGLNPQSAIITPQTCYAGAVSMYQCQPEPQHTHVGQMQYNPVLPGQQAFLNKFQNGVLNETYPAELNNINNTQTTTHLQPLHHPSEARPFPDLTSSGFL

[2] = test system: AHR-regulated gene CYP1A1; experiment: In vitro assay 3: AHR-regulated CYP1A1 expression in human cell line (U937, qPCR); conditions: Homo sapiens, U-937, 6 h, read-out: Assay 3: Hum CYP1A1 Antagonism IC50 [M], U937 cells, 200 μM KA, 6 hours, qPCR
AHR [3] = biological target: T1, AHR; experiment: In vitro assay 1: antagonism in human cell line (transactivation assay, kynurenic acid prestimulated); conditions: Assay 1: AHR-luc Hum Antagonism IC50 [M], 150 μM kynurenic acid, 20 hours, firefly luciferase

Row | SMILES | IC50 (AHR [1]) [M] | IC50 [2] [M] | IC50 (AHR [3]) [M]
1 | O=C(N[C@H]1C[C@@H](O)C1)c1cc(-c2ccc(Cl)cc2)nn(-c2cccc(F)c2)c1=O [Example 324, 6-(4-chlorophenyl)-2-(3-fluorophenyl)-N-(cis-3-hydroxycyclobutyl)-3-oxo-2,3-dihydropyridazine-4-carboxamide] | > 2e-05 | 8.18e-08 | 4.67e-08
2 | O=C(NCC1(O)COC1)c1cc(-c2ccc(Cl)cc2)nn(-c2cccc(F)c2)c1=O [Example 331, 6-(4-chlorophenyl)-2-(3-fluorophenyl)-N-[(3-hydroxyoxetan-3-yl)methyl]-3-oxo-2,3-dihydropyridazine-4-carboxamide] | > 2e-05 | 1.42e-07 | 7.87e-08
3 | CC(C)[C@@H](CO)NC(=O)c1cc(-c2ccc(Cl)cc2)nn(-c2cccc(C#N)c2)c1=O [Example 361, 6-(4-chlorophenyl)-2-(3-cyanophenyl)-N-[(2S)-1-hydroxy-3-methylbutan-2-yl]-3-oxo-2,3-dihydropyridazine-4-carboxamide] | > 2e-05 | 2.96e-07 | 1.66e-07
4 | Cc1cccc(-n2nc(-c3ccc(Cl)cc3)cc(C(=O)N[C@H](CO)C(C)C)c2=O)c1 [Example 365, 6-(4-chlorophenyl)-N-[(2S)-1-hydroxy-3-methylbutan-2-yl]-2-(3-methylphenyl)-3-oxo-2,3-dihydropyridazine-4-carboxamide] | > 2e-05 | > 1e-06 | 4.18e-07
5 | Cc1cccc(-n2nc(-c3ccc(Cl)cc3)cc(C(=O)N[C@@H](C)CO)c2=O)c1 [Example 369, 6-(4-chlorophenyl)-N-[(2S)-1-hydroxypropan-2-yl]-2-(3-methylphenyl)-3-oxo-2,3-dihydropyridazine-4-carboxamide] | > 2e-05 | > 1e-06 | 9.73e-07
6 | C[C@@H](CO)NC(=O)c1cc(-c2ccc(N3CCOCC3)cc2)nn(-c2cccc(F)c2)c1=O [Example 374, 2-(3-fluorophenyl)-N-[(2S)-1-hydroxypropan-2-yl]-6-[4-(morpholin-4-yl)phenyl]-3-oxo-2,3-dihydropyridazine-4-carboxamide] | > 2e-05 | > 3e-07 | 2.65e-08
7 | CC(C)[C@@H](CO)NC(=O)c1cc(-c2ccc(N(C)C)c(Cl)c2)nn(-c2cccc(F)c2)c1=O [Example 375, 6-[3-chloro-4-(dimethylamino)phenyl]-2-(3-fluorophenyl)-N-[(2S)-1-hydroxy-3-methylbutan-2-yl]-3-oxo-2,3-dihydropyridazine-4-carboxamide] | > 2e-05 | 5.73e-08 | 3.05e-08
8 | CN(C)c1ccc(-c2cc(C(=O)NC(CO)C(F)(F)F)c(=O)n(-c3cccc(F)c3)n2)cc1Cl (stereo not drawn) [Example 376, 6-[3-chloro-4-(dimethylamino)phenyl]-2-(3-fluorophenyl)-3-oxo-N-(1,1,1-trifluoro-3-hydroxypropan-2-yl)-2,3-dihydropyridazine-4-carboxamide] | > 2e-05 | 1.12e-07 | 3.97e-08
9 | CC(C)(O)[C@@H](NC(=O)c1cc(-c2ccc(OC(F)(F)F)cc2)nn(-c2cccc(F)c2)c1=O)C1CC1 [Example 379, N-[(1S)-1-cyclopropyl-2-hydroxy-2-methylpropyl]-2-(3-fluorophenyl)-3-oxo-6-[4-(trifluoromethoxy)phenyl]-2,3-dihydropyridazine-4-carboxamide] | > 2e-05 | 6.9e-09 | 9.6e-09
10 | C[C@H](NC(=O)c1cc(-c2ccc(OC(F)(F)F)cc2)nn(-c2cccc(F)c2)c1=O)C(C)(C)O [Example 380, 2-(3-fluorophenyl)-N-[(2S)-3-hydroxy-3-methylbutan-2-yl]-3-oxo-6-[4-(trifluoromethoxy)phenyl]-2,3-dihydropyridazine-4-carboxamide] | > 0.0001 | 6.3e-08 | 2.8e-08
11 | C[C@H](NC(=O)c1cc(-c2ccc(C(F)F)cc2)nn(-c2cccc(F)c2)c1=O)C(C)(C)O [Example 383, 6-[4-(difluoromethyl)phenyl]-2-(3-fluorophenyl)-N-[(2S)-3-hydroxy-3-methylbutan-2-yl]-3-oxo-2,3-dihydropyridazine-4-carboxamide] | > 2e-05 | 3.4e-08 | 2.1e-08
12 | C[C@H](NC(=O)c1cc(-c2ccc(Cl)cc2)nn(-c2cccc(F)c2)c1=O)C(C)(C)O [Example 392, 6-(4-chlorophenyl)-2-(3-fluorophenyl)-N-[(2S)-3-hydroxy-3-methylbutan-2-yl]-3-oxo-2,3-dihydropyridazine-4-carboxamide] | > 2e-05 | 5.7e-08 | 2.6e-08
13 | N#C[C@@H](CO)NC(=O)c1cc(-c2ccc(Cl)cc2)nn(-c2cccc(F)c2)c1=O [Example 393, 6-(4-chlorophenyl)-N-[(1S)-1-cyano-2-hydroxyethyl]-2-(3-fluorophenyl)-3-oxo-2,3-dihydropyridazine-4-carboxamide] | > 2e-05 | 4.6e-08 | 2.7e-08

Further lines, results first:

Row | IC50 (AHR [1]) [M] | IC50 [2] [M] | IC50 (AHR [3]) [M] | SMILES
14 | > 2e-05 | 8.01e-08 | 7.05e-08 | O=C(NC[C@H](O)CO)c1cc(-c2ccc(C(F)(F)F)cc2)nn(-c2cccc(F)c2)c1=O [Example 264, (−)-N-[(2S)-2,3-Dihydroxypropyl]-2-(3-fluorophenyl)-3-oxo-6-[4-(trifluoromethyl)phenyl]-2,3-dihydropyridazine-4-carboxamide]
15 | > 2e-05 | 2.15e-07 | 6.04e-08 | O=C(NC[C@@H](O)CO)c1cc(-c2ccc(C(F)(F)F)cc2)nn(-c2cccc(F)c2)c1=O [Example 265, (+)-N-[(2R)-2,3-Dihydroxypropyl]-2-(3-fluorophenyl)-3-oxo-6-[4-(trifluoromethyl)phenyl]-2,3-dihydropyridazine-4-carboxamide]
16 | > 2e-05 | 2.37e-08 | 3.6e-08 | CC(C)(C)[C@@H](CO)NC(=O)c1cc(-c2ccc(Cl)cc2)nn(-c2cccc(F)c2)c1=O [Example 272, 6-(4-Chlorophenyl)-2-(3-fluorophenyl)-N-[(2S)-1-hydroxy-3,3-dimethylbutan-2-yl]-3-oxo-2,3-dihydropyridazine-4-carboxamide]
17 | > 2e-05 | 2.08e-08 | 4.94e-09 | CC(C)(O)C(NC(=O)c1cc(-c2ccc(Cl)cc2)nn(-c2cccc(F)c2)c1=O)C(F)(F)F (stereo not drawn) [Example 277, 6-(4-Chlorophenyl)-2-(3-fluorophenyl)-3-oxo-N-(1,1,1-trifluoro-3-hydroxy-3-methylbutan-2-yl)-2,3-dihydropyridazine-4-carboxamide]
18 | > 2e-05 | 7.59e-08 | 2.2e-08 | CC(NC(=O)c1cc(-c2ccc(Cl)cc2)nn(-c2cccc(F)c2)c1=O)C(C)(C)O (stereo not drawn) [Example 281, 6-(4-Chlorophenyl)-2-(3-fluorophenyl)-N-(3-hydroxy-3-methylbutan-2-yl)-3-oxo-2,3-dihydropyridazine-4-carboxamide]
19 | > 2e-05 | 6.22e-09 | 3.66e-09 | O=C(N[C@H](CO)C(F)(F)F)c1cc(-c2ccc(C(F)F)cc2)nn(-c2cccc(F)c2)c1=O [Example 296, 6-[4-(Difluoromethyl)phenyl]-2-(3-fluorophenyl)-3-oxo-N-[(2R)-1,1,1-trifluoro-3-hydroxypropan-2-yl]-2,3-dihydropyridazine-4-carboxamide]
20 | > 2e-05 | 1.75e-07 | 1.06e-07 | CC[C@@H](CO)NC(=O)c1cc(-c2ccc(Cl)c(Cl)c2)nn(-c2cccc(F)c2)c1=O [Example 306, 6-(3,4-Dichlorophenyl)-2-(3-fluorophenyl)-N-[(2S)-1-hydroxybutan-2-yl]-3-oxo-2,3-dihydropyridazine-4-carboxamide]
21 | > 2e-05 | 2.31e-07 | 9.54e-08 | COC[C@@H](CO)NC(=O)c1cc(-c2ccc(Cl)cc2)nn(-c2cccc(F)c2)c1=O [Example 314, 6-(4-chlorophenyl)-2-(3-fluorophenyl)-N-[(2R)-1-hydroxy-3-methoxypropan-2-yl]-3-oxo-2,3-dihydropyridazine-4-carboxamide]
22 | > 2e-05 | 2e-06 | 8.53e-08 | COC(=O)[C@@H](CO)NC(=O)c1cc(-c2ccc(Cl)cc2)nn(-c2cccc(F)c2)c1=O [Example 315, methyl N-{[6-(4-chlorophenyl)-2-(3-fluorophenyl)-3-oxo-2,3-dihydropyridazin-4-yl]carbonyl}-D-serinate]
